In article PMC11233931, “Remodeling tumor‐associated macrophage for anti‐cancer effects by rational design of irreversible inhibition of mitogen‐activated protein kinase‐activated protein kinase 2” (MedComm, 2024) one finds inhibition data, which are given here for one compound.

By inhibition is commonly meant the change of the read-out against control, counted positive when it falls.

What all share (test): Eurofins kinase selectivity profile against 380 other human recombinant kinases (Table S2)
Holding throughout (format): biochemical

Assay [1] deals with T1, 380 human recombinant protein kinases (Homo sapiens, UniProt P15056).
T1 construct: purchased Eurofins (Celle Lévescault)
The settings on record: B-Raf(h), read-out: Inhibition rate. An outline of the steps: (§1)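 Off-target profiling: one compound assayed by a commercial provider over 380 recombinant human protein kinases at various concentrations.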

Assay [2] has as its target T2, 380 human recombinant protein kinases (Homo sapiens, UniProt Q8IWQ3).
T2 construct: purchased Eurofins (Celle Lévescault)
T2 sequence (Q8IWQ3 1-736): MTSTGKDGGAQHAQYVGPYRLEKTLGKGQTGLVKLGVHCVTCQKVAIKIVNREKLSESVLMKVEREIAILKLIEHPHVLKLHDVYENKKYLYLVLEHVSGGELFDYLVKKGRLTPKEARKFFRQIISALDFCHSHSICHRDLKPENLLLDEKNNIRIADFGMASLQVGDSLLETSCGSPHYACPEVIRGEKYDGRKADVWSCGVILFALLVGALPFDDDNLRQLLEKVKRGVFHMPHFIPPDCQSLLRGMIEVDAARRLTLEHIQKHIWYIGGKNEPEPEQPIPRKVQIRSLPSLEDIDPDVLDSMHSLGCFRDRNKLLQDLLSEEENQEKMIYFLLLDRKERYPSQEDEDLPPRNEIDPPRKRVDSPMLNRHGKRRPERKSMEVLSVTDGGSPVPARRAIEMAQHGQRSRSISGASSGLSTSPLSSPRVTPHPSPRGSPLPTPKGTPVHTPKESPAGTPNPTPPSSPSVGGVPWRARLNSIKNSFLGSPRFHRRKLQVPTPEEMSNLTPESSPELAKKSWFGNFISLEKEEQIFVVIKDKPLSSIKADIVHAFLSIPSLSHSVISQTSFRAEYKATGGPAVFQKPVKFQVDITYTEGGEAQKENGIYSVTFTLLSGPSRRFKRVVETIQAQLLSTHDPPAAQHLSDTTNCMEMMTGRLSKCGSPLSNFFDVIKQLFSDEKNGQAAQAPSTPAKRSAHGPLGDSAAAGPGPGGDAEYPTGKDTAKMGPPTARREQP
Particulars: BrSK2(h), read-out: Inhibition rate. The method in brief: as §1

Assay [3] deals with T3, 380 human recombinant protein kinases (Homo sapiens, UniProt Q9Y6M4).
T3 construct: purchased Eurofins (Celle Lévescault)
The settings on record: CK1γ3(h), read-out: Inhibition rate. The method in brief:
as §1

Assay [4] deals with T4, 380 human recombinant protein kinases (Homo sapiens, UniProt Q13546).
T4 construct: purchased Eurofins (Celle Lévescault)
T4 sequence (Q13546 1-671): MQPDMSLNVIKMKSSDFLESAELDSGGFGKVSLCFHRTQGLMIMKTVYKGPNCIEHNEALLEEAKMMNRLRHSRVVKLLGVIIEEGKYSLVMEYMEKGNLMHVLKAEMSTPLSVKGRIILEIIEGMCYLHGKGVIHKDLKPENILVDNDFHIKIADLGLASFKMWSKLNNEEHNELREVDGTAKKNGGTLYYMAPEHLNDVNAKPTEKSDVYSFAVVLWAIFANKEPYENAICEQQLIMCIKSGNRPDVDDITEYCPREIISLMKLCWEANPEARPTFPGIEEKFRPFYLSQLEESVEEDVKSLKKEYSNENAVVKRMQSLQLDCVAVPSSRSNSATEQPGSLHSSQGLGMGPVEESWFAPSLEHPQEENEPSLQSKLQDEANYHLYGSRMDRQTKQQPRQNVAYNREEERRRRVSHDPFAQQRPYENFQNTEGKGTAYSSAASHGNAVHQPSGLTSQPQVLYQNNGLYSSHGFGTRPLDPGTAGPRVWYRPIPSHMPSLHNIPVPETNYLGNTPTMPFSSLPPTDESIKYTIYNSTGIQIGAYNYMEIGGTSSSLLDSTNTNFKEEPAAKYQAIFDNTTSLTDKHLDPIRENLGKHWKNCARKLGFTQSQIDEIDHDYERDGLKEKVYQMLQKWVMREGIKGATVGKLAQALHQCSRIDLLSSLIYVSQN
Particulars: RIPK1(h), read-out: Inhibition rate. An outline of the steps: as §1

In assay [5] the target is T5, 380 human recombinant protein kinases (Homo sapiens, UniProt O75116).
T5 construct: purchased Eurofins (Celle Lévescault)
The settings on record: ROCK-II(h), read-out: Inhibition rate. The method in brief:
as §1

In assay [6] the target is T6, 380 human recombinant protein kinases (Homo sapiens, UniProt Q99759).
T6 construct: purchased Eurofins (Celle Lévescault)
T6 sequence (Q99759 1-626): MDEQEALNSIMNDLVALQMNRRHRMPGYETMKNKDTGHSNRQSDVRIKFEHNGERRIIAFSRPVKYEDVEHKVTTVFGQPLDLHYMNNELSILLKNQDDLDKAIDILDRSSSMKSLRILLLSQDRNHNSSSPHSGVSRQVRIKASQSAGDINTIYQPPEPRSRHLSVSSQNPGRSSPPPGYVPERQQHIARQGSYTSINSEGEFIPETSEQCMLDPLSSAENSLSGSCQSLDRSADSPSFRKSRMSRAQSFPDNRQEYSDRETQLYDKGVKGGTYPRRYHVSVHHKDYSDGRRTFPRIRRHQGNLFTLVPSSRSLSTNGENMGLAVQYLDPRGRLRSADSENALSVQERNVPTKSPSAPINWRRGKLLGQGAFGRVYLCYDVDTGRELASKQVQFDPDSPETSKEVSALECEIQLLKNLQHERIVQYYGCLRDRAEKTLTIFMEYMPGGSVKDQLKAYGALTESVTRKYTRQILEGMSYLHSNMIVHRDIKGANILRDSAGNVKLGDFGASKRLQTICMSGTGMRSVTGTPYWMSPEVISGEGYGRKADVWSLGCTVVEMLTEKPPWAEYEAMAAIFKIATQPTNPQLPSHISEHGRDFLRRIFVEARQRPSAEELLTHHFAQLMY
Particulars: MEKK3(h), read-out: Inhibition rate. An outline of the steps:
as §1

The target of assay [7] is T7, 380 human recombinant protein kinases (Homo sapiens, UniProt Q9H1R3).
T7 construct: purchased Eurofins (Celle Lévescault)
The settings on record: MYLK2(h), read-out: Inhibition rate. The method in brief:
as §1

T1 sequence (P15056 whole entry): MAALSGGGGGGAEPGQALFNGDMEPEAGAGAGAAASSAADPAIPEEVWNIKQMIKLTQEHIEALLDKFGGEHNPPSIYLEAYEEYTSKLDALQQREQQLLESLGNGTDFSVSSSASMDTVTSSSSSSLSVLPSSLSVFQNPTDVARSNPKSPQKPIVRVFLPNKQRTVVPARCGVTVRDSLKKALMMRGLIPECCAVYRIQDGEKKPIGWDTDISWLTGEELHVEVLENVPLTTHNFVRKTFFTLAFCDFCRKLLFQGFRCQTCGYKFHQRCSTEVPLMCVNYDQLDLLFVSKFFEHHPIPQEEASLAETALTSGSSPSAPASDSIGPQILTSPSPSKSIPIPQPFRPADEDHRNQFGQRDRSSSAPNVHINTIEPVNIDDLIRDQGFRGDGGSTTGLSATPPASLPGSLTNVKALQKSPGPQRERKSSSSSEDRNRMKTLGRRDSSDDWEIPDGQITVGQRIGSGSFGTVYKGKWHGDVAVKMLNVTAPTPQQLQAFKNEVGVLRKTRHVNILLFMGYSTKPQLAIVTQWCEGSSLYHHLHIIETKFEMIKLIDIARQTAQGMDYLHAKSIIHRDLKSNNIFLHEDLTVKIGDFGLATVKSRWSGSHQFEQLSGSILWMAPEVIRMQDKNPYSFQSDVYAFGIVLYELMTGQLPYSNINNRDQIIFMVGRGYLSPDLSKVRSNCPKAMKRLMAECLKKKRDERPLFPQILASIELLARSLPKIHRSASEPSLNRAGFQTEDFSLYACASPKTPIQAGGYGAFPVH
T5 sequence (O75116 whole entry): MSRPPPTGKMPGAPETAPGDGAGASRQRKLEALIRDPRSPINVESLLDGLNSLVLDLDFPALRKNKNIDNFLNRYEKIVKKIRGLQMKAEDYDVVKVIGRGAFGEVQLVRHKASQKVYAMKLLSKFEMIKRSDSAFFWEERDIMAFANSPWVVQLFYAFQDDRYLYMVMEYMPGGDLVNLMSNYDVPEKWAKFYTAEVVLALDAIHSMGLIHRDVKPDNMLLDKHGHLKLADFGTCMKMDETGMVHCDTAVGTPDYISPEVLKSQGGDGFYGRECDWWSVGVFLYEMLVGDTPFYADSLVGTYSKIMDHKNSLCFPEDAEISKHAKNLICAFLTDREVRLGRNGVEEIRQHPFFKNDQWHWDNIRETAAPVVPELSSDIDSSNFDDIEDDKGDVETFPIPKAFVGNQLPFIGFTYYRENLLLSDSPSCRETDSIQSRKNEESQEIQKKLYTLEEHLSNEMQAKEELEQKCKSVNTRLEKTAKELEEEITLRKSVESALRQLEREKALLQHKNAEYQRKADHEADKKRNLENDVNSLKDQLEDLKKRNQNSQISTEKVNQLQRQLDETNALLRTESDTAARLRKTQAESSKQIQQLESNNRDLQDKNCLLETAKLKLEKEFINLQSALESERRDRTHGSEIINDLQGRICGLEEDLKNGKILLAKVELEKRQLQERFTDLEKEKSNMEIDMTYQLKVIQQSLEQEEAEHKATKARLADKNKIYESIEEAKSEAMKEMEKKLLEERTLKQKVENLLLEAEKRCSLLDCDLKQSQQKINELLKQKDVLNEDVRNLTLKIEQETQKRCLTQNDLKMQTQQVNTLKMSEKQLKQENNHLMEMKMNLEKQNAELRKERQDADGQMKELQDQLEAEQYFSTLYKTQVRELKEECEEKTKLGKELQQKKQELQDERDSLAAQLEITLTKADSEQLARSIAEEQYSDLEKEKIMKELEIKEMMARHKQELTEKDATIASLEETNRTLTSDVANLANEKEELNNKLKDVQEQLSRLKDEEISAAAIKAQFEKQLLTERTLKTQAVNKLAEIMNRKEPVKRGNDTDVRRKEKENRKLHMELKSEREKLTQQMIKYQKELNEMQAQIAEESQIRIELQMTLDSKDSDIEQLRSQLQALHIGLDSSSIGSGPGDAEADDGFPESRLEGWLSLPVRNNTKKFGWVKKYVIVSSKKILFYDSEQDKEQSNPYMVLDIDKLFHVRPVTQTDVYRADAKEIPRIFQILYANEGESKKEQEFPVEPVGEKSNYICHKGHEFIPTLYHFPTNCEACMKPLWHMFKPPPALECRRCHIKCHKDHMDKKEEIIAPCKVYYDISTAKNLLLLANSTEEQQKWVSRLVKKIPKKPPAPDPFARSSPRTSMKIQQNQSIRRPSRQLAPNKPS
T3 sequence (Q9Y6M4 whole entry): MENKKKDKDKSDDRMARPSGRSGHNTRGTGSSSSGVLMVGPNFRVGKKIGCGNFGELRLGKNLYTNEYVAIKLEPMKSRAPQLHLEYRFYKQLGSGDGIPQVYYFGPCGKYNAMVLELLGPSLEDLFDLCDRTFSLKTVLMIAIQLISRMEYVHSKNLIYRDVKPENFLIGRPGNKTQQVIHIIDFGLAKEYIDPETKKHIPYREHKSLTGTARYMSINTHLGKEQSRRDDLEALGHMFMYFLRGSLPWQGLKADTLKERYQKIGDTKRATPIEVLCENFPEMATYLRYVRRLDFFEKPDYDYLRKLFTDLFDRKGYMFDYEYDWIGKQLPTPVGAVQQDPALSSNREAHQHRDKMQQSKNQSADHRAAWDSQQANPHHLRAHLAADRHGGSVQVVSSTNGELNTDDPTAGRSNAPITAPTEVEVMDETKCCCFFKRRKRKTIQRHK
T7 sequence (Q9H1R3 whole entry): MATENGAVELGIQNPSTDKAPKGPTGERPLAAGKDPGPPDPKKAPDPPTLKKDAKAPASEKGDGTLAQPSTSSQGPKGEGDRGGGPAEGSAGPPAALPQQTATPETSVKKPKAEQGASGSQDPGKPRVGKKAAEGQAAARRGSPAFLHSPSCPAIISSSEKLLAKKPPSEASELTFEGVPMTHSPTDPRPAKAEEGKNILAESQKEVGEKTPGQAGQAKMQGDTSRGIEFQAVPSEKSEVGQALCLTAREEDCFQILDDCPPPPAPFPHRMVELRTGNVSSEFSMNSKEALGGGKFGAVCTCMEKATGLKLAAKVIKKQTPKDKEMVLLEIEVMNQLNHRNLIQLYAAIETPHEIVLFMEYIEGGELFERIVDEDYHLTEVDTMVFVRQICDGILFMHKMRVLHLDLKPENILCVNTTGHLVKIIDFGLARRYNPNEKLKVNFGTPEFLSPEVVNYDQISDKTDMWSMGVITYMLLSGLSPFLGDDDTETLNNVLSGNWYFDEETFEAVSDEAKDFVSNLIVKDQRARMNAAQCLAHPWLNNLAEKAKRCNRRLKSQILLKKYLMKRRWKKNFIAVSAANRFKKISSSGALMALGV

For `C=CC(=O)Nc1cc(-c2cc(-c3cc4c([nH]3)CCNC4=O)ccn2)ccc1OC(F)(F)F` [compound 11], the inhibition at 0.01 µM is -7% in assay [1] (10 nM); -2% in assay [2] (10 nM); -13% in assay [3] (10 nM); -7% in assay [4] (10 nM); -3% in assay [5] (10 nM); -5% in assay [6] (10 nM). The inhibition at 0.01 µM in assay [7] (10 nM) was -2%. Also, the inhibition at 0.1 µM in assay [1] (100 nM) was -7%; in assay [2] (100 nM) it was 6%; in assay [3] (100 nM) it was 15%; in assay [4] (100 nM), -3%; in assay [5] (100 nM) it was 0%; in assay [6] (100 nM), 11%. Further, the inhibition at 0.1 µM in assay [7] (100 nM) was 6%. The inhibition at 1 µM in assay [1] (1000 nM) was 4%; in assay [2] (1000 nM) it was 26%; in assay [3] (1000 nM) it was 67%; in assay [4] (1000 nM), 3%; in assay [5] (1000 nM) it was -6%; in assay [6] (1000 nM) it was 12%. The inhibition at 1 µM in assay [7] (1000 nM) is 29%.
